# Assay results as given in ChEMBL document CHEMBL5653631, “A Potent and Selective ULK1 Inhibitor Suppresses Autophagy and Sensitizes Cancer Cells to Nutrient Stress” (iScience, 2018).
# Columns and labels:
# [1] = biological target: Focal adhesion kinase 1 (Homo sapiens) (UniProt Q05397); experiment: Inhibition of human recombinant FAK at 500 nM in presence of ATP by radiometric assay relative to control
# [2] = biological target: Serine/threonine-protein kinase pim-2 (Homo sapiens) (UniProt Q9P1W9); experiment: Inhibition of human recombinant PIM2 at 500 nM in presence of ATP by radiometric assay relative to control
# [3] = biological target: T1, Serine/threonine-protein kinase BRSK2 (Homo sapiens) (UniProt Q8IWQ3); experiment: Inhibition of human recombinant BRSK2 at 500 nM related to control ULK1
# T1 sequence (whole entry): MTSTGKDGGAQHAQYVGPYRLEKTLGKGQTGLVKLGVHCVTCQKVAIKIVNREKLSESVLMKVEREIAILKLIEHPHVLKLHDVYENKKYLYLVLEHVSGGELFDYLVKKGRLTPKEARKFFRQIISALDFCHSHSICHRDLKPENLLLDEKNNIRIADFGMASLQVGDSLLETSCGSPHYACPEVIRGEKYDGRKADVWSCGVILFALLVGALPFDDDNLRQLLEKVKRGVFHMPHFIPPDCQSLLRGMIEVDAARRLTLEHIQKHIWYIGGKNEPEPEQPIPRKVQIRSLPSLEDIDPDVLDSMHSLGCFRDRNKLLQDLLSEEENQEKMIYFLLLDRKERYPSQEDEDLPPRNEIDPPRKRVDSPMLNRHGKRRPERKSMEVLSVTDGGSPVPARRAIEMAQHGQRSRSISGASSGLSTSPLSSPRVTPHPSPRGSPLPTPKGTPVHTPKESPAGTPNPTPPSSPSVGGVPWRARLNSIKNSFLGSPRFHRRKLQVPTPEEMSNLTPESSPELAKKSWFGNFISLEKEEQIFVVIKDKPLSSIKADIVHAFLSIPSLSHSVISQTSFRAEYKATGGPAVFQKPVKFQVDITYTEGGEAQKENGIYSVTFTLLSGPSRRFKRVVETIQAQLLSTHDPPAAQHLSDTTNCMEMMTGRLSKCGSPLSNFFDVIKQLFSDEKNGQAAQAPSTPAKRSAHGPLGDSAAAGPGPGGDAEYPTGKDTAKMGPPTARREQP
# [4] = biological target: T2, Serine/threonine-protein kinase 17B (Homo sapiens) (UniProt O94768); experiment: Inhibition of human recombinant DRAK2 at 500 nM related to control ULK1
# T2 sequence (whole entry): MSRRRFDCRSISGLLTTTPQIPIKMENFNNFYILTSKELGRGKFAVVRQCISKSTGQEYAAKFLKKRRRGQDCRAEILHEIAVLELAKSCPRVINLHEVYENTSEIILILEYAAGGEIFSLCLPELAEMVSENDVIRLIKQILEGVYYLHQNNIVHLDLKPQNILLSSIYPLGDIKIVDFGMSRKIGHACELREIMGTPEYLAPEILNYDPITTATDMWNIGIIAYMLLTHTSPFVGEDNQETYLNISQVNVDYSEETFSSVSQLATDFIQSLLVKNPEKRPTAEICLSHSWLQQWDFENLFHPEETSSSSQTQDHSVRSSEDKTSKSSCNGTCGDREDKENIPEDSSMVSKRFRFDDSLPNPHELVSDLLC
# [5] = biological target: Focal adhesion kinase 1 (Homo sapiens) (UniProt Q05397); experiment: Inhibition of human recombinant FAK at 500 nM related to control ULK1
# [6] = biological target: T3, Mitogen-activated protein kinase 12 (Homo sapiens) (UniProt P53778); experiment: Inhibition of human recombinant p38gamma at 15 nM in presence of ATP by radiometric assay relative to control
# T3 sequence (whole entry): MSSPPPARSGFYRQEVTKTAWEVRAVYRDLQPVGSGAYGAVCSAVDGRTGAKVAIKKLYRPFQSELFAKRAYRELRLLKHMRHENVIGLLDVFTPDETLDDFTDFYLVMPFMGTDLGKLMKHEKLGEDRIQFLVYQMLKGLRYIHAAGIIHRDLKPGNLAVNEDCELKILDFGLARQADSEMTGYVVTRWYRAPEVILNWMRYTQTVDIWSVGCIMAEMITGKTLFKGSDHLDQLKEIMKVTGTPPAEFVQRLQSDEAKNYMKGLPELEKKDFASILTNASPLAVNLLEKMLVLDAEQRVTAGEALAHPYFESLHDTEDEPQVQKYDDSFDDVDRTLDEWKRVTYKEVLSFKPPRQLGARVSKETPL
# [7] = biological target: T4, Mitogen-activated protein kinase kinase kinase 3 (Homo sapiens) (UniProt Q99759); experiment: Inhibition of human recombinant MAP3K3 at 15 nM related to control ULK1
# T4 sequence (whole entry): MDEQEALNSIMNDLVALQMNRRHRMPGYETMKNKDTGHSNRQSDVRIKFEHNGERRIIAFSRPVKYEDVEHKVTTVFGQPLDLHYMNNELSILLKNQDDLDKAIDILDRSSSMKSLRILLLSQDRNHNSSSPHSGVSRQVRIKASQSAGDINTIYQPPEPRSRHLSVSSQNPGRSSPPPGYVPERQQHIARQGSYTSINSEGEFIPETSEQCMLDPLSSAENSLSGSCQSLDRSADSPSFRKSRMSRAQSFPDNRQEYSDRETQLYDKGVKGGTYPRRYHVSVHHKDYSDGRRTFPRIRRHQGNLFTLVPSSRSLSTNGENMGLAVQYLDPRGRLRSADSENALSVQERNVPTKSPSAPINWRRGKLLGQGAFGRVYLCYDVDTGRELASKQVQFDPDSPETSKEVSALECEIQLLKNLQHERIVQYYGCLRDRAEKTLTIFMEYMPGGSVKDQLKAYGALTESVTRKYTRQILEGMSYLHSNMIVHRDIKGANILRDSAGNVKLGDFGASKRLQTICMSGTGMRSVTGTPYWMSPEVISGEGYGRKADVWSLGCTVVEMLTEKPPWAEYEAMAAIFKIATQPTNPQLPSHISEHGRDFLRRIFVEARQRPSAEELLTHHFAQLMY
# [8] = biological target: RAF proto-oncogene serine/threonine-protein kinase (Homo sapiens) (UniProt P04049); experiment: Inhibition of human recombinant RAF1 at 15 nM related to control ULK1
# [9] = biological target: Insulin receptor (Homo sapiens) (UniProt P06213); experiment: Inhibition of human recombinant INSR at 40 nM in presence of ATP by radiometric assay relative to control
# Insulin receptor (Homo sapiens), sequence (P06213 28-758 limits assumed): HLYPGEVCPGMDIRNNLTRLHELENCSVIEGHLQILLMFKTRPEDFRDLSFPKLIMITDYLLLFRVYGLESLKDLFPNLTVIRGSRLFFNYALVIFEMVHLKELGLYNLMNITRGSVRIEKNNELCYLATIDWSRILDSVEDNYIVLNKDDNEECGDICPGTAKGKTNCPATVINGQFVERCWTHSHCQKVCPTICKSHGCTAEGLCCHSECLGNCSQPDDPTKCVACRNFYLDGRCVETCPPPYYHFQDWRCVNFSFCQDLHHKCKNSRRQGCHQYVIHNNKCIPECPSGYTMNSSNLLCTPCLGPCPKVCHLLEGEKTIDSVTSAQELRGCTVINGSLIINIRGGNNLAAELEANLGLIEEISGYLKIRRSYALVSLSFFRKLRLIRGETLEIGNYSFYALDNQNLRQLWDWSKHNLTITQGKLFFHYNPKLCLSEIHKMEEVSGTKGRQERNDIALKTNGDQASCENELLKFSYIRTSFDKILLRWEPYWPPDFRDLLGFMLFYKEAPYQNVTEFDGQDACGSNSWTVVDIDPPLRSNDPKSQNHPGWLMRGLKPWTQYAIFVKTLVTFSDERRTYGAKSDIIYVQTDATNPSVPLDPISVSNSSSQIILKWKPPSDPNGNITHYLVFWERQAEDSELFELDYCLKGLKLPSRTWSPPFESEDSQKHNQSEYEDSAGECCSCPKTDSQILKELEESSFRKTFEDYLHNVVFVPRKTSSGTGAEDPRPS
# Insulin receptor (Homo sapiens), sequence (P06213 763-1382 limits assumed): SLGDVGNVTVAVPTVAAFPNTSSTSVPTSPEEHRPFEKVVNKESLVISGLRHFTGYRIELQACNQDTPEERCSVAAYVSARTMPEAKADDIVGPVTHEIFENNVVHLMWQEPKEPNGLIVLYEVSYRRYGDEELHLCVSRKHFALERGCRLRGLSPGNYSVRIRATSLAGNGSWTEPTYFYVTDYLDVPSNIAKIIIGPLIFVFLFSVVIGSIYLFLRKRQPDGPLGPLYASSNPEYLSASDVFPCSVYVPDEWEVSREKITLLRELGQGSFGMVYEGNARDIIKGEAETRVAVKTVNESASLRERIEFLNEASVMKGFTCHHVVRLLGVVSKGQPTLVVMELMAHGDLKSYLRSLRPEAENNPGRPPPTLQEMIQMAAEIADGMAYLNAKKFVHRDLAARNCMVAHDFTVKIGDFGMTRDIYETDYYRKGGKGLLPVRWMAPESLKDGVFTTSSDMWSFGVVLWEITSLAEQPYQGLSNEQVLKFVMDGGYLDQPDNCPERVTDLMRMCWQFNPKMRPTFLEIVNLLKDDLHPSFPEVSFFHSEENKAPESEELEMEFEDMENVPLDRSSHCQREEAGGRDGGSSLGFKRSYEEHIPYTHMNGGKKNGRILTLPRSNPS
# [10] = biological target: NT-3 growth factor receptor (Homo sapiens) (UniProt Q16288); experiment: Inhibition of human recombinant TRKC at 40 nM in presence of ATP by radiometric assay relative to control
# NT-3 growth factor receptor (Homo sapiens), sequence (Q16288 32-839 limits assumed): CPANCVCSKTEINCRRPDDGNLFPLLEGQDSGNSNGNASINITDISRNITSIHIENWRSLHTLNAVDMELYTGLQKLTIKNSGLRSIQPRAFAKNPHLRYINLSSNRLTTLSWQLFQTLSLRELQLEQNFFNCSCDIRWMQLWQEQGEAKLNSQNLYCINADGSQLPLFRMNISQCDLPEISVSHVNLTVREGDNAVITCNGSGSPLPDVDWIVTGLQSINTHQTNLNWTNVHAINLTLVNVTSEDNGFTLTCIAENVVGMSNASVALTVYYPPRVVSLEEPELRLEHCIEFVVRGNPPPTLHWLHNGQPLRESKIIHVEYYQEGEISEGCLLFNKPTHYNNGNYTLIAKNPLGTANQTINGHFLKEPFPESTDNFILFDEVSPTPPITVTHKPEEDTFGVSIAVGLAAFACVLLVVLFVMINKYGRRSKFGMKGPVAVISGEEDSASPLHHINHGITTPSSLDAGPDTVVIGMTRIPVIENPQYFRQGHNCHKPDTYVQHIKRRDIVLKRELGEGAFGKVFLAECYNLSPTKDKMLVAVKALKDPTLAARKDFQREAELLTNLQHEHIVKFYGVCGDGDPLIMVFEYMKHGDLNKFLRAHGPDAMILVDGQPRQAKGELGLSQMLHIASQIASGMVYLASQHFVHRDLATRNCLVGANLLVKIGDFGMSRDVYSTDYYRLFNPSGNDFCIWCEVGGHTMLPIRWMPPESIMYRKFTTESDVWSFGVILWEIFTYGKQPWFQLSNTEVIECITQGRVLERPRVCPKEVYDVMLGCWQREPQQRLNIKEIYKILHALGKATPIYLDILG
# [11] = biological target: Tau-tubulin kinase 1 (Homo sapiens) (UniProt Q5TCY1); experiment: Inhibition of human recombinant TTBK1 at 40 nM in presence of ATP by radiometric assay relative to control
# Tau-tubulin kinase 1 (Homo sapiens), sequence (Q5TCY1 whole entry): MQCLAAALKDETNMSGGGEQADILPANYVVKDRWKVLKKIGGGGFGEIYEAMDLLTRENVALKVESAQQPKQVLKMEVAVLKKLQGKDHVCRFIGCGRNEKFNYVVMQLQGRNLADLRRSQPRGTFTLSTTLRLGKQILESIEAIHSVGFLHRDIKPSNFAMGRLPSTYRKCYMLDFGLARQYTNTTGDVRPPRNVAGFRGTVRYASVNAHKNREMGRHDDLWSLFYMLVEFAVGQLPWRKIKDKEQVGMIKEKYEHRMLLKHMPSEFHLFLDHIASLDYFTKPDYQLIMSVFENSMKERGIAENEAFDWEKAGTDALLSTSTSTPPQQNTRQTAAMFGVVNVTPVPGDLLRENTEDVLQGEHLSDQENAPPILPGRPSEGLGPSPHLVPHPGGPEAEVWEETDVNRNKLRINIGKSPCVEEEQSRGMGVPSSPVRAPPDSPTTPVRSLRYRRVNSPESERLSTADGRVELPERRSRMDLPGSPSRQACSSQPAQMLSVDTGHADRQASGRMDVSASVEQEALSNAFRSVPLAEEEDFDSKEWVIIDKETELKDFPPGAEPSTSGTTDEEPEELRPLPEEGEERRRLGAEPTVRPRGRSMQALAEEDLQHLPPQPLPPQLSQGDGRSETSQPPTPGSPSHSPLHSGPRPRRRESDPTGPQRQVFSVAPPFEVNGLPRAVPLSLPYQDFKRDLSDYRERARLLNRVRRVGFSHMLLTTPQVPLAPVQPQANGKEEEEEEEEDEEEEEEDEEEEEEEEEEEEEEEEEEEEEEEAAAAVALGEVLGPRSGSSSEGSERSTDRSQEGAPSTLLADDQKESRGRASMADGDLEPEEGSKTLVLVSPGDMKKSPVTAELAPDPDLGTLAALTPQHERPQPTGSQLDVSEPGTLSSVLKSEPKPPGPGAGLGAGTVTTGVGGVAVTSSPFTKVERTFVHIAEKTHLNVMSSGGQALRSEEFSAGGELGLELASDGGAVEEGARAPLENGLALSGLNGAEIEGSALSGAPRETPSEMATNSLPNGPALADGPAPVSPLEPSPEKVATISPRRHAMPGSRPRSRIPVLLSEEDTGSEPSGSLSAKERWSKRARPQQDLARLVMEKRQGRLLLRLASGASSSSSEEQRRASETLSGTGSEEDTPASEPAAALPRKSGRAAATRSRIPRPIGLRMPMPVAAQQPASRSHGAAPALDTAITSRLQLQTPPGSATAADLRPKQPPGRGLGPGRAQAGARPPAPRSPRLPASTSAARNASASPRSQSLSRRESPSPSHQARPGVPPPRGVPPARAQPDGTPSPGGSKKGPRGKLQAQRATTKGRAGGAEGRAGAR
# [12] = biological target: Protein-tyrosine kinase 6 (Homo sapiens) (UniProt Q13882); experiment: Inhibition of human recombinant BRK at 40 nM related to control ULK1
# Protein-tyrosine kinase 6 (Homo sapiens), sequence (Q13882 whole entry, looked up): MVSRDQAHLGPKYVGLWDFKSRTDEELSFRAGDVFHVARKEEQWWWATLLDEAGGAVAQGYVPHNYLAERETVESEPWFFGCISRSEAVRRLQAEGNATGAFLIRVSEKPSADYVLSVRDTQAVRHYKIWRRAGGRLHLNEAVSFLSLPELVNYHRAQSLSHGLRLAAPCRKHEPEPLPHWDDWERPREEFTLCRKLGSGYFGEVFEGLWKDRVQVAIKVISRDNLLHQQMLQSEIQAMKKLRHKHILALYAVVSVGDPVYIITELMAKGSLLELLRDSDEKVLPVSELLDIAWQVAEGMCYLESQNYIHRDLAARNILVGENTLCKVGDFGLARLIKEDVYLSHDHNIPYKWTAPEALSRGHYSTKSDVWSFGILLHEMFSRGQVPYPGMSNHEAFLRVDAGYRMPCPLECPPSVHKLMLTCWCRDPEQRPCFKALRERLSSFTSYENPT
# [13] = biological target: Glycogen synthase kinase-3 beta (Homo sapiens) (UniProt P49841); experiment: Inhibition of human recombinant GSK3B at 40 nM related to control ULK1
# [14] = biological target: Serine/threonine-protein kinase 32A (Homo sapiens) (UniProt Q8WU08); experiment: Inhibition of human recombinant YANK1 at 40 nM related to control ULK1
# Focal adhesion kinase 1 (Homo sapiens), sequence (Q05397 2-1052 limits assumed): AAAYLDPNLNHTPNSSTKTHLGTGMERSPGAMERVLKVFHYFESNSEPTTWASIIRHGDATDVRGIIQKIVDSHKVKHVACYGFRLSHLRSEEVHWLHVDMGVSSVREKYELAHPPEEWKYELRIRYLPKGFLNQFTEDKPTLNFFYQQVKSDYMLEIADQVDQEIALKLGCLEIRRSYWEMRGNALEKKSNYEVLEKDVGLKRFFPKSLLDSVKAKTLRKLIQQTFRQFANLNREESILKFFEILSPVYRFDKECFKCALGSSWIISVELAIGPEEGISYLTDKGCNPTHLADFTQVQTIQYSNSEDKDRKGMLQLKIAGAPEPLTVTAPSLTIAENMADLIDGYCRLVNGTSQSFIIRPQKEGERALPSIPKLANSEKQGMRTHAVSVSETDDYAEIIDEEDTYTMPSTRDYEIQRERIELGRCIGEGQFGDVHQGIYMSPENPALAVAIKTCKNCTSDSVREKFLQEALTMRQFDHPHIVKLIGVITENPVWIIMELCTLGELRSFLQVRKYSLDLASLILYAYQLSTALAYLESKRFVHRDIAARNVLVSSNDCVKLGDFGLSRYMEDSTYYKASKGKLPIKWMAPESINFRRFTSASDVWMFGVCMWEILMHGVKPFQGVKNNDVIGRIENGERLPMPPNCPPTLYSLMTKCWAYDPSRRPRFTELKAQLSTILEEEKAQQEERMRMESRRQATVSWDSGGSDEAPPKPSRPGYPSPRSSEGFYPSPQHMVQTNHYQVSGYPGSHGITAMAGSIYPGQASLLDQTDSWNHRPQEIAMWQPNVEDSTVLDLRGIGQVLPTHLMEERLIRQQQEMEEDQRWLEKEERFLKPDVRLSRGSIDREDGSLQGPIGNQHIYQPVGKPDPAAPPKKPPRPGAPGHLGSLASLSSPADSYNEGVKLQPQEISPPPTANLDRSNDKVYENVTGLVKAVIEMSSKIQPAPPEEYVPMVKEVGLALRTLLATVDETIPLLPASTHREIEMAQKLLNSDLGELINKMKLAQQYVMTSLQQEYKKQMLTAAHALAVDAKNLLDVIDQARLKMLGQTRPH
smiles,measurement,setting,value
CNC(=O)c1ccccc1Oc1nc(Nc2cc(OC)c(OC)c(OC)c2)ncc1Br,inhibition,[1],71%
same,inhibition,[2],2%
same,fold change (FC),[3],0.04
same,fold change (FC),[4],0.08
same,fold change (FC),[5],0.96
CC(C)[C@H](NC(=O)c1cc(-c2cnn3cc(-c4ccc(OCCN5CCCCC5)cc4)cnc23)cs1)C(F)(F)F,inhibition,[6],5%
same,fold change (FC),[7],0.03
same,fold change (FC),[8],0.09
O=C(N[C@@H](C1CC1)C(F)(F)F)c1cc(-c2cnn3cc(-c4ccc(F)cc4)cnc23)cs1,inhibition,[9],0%
same,inhibition,[10],0%
same,inhibition,[11],0%
same,fold change (FC),[12],0
same,fold change (FC),[13],0
same,fold change (FC),[14],0.05
